Data reported in publication PMC9103596, “The inhibitory effect of boric acid on hypoxia-regulated tumour-associated carbonic anhydrase IX” (Journal of Enzyme Inhibition and Medicinal Chemistry, 2022).
Like-named read-outs stand apart in the source and are kept apart here.

Columns and labels:
[1] = system: androgen-sensitive LNCaP prostate cancer cells; details: nude mice injected with LNCaP cells, treated with BA; cited from earlier work
[2] = system: HT29 (human colon cancer) cells; details: read-out: IC50 cell viability
Protocol: (§1) Cells were incubated at 37 °C and 5% CO2 in 25cm[3] flasks. On reaching 80–90% confluence, cell harvesting was performed by washing cells in phosphate-buffered saline (PBS) and then detached from the flask surface using trypsin-EDTA. Cell count was determined using a hematocytometer. Two separate cultures each for both HT29 and A375 were grown, one under normoxic conditions and the second one under hypoxic conditions. The normoxic cultures for HT29 and A375 were grown and incubated at normoxic conditions (37 °C and 5% CO2). […] The hypoxic chamber was placed in a 37 °C incubator for 4 h.
(§2) WST-1 reagent was used to measure mitochondrial dehydrogenase activity and determine cell viability. A 0.5 M stock of B(OH)3 was prepared by dissolving 0.309 g of B(OH)3 in 10 ml of distilled water. HT29 and A375 cells were seeded on 96-well plates and incubated for 24 h, allowing them to adhere to the wells before treatment with B(OH)3. Cells were then treated with 2.5, 5, 10, 25 50, 100, and 200 mM B(OH)3 and topped to 100 µL with a prepared cell medium (one well remaining as an untreated, negative control). The plates were then incubated for 24 and 48 h periods. After each period, […] WST-1 reagent was added to each well and then the plate was incubated for another 3–4 h at 37 °C with 5% CO2. The plates were read by using an Epoch microplate reader (BioTek, Cambridge, MA) with a wavelength of 450 nm. The results were analysed by using GraphPad Prism version 9 (Graphpad Software Inc., La Jolla, CA), for determining the IC50 values, with AZA as standard CA inhibitor. HT29 and A375 cells were seeded 0.3 × 10^6 cells/well into two separate six-well plates. On each well-plate, one column was treated with BA, the second was treated with AZA, and the third column was left untreated, serving as a control.

[3] = system: CA IX levels in A375 cells; details: treated at IC50 concentration for 24 h, ELISA
Protocol: as §1, §2

[4] = system: A375 (human malignant melanoma) cells; details: read-out: IC50 cell viability; A375, WST-1, 48 h
Protocol: as §1, §2

[5] = system: CA IX levels in HT29 cells; details: treated at IC50 concentration for 24 h, ELISA
Protocol: Cells were incubated at 37 °C and 5% CO2 in 25cm[3] flasks. On reaching 80–90% confluence, cell harvesting was performed by washing cells in phosphate-buffered saline (PBS) and then detached from the flask surface using trypsin-EDTA. Cell count was determined using a hematocytometer. Two separate cultures each for both HT29 and A375 were grown, one under normoxic conditions and the second one under hypoxic conditions. The normoxic cultures for HT29 and A375 were grown and incubated at normoxic conditions (37 °C and 5% CO2). […] The hypoxic chamber was placed in a 37 °C incubator for 4 h. Hypoxia conditions were confirmed by detecting HIF-1α protein level by using an ELISA kit (Shangai Koon, Shanghai, China).
HT29 and A375 cells were seeded 0.3 × 10^6 cells/well into two separate six-well plates. On each well-plate, one column was treated with BA, the second was treated with AZA, and the third column was left untreated, serving as a control. […] The plates were then set aside to incubate for 24 h under normoxic conditions (37 °C and 5% CO2).
The lysates were collected by centrifugation at 13,000 × g for 15 min at 4 °C. […] These protein levels were determined by using CA IX ELISA kit and HIF1α ELISA kit according to the manufacturer’s instructions. […] Of 50 µL of the stop solution was then added and the microplates were read at 450 nm using the Epoch micro-plate reader (BioTek, Cambridge, MA).

hCA I = hCA I (Homo sapiens, UniProt P00915); details: read-out: KI hCA I; stopped-flow CO2 hydrase assay, mean from three assays
Protocol: (§3) The uncatalysed rates were determined in the same manner and subtracted from the total observed rates. Stock solutions of BA (or other inhibitors) (100 mM) were prepared in distilled – deionised water, and dilutions up to 0.01 nM were done thereafter with the assay buffer. Inhibitor and enzyme solutions were preincubated together for 6 h at room temperature prior to assay in order to allow for the formation of the E–I complex. The inhibition constants were obtained by nonlinear least-squares methods using PRISM 3 and the Cheng–Prusoff equation, as reported earlier, and represent the mean from at least three different determinations.

hCA XII = hCA XII (Homo sapiens, UniProt O43570); details: read-out: KI hCA XII; stopped-flow CO2 hydrase assay, mean from three assays
Protocol: as §3

hCA II = hCA II (Homo sapiens, UniProt P00918); details: read-out: KI hCA II; stopped-flow CO2 hydrase assay, mean from three assays
Protocol: as §3

hCA IX = hCA IX (Homo sapiens, UniProt Q16790); details: read-out: KI hCA IX
Protocol: as §3

Chain of hCA XII (O43570 25-354): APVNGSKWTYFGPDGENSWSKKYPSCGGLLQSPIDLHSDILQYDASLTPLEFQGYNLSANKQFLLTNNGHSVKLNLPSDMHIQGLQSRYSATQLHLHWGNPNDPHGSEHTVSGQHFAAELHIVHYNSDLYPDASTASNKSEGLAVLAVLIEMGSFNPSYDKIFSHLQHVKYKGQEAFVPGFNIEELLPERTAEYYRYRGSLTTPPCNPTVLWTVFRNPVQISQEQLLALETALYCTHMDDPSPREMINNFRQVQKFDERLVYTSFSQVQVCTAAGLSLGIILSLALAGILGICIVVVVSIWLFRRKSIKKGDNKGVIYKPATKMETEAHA
Chain of hCA I (P00915 whole entry): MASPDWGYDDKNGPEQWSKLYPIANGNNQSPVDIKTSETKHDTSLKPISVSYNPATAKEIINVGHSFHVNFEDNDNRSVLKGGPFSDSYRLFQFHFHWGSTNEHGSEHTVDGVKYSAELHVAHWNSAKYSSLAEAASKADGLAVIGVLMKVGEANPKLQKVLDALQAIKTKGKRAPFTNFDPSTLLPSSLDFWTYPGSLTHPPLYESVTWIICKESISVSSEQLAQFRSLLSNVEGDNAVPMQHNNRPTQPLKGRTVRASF

OB(O)O [Boric acid]
decrease in plasma PSA levels [1]: 88%
decrease in tumour growth [1]: 25 − 35%
IC50 ([2]; HT29, WST-1, 24 h): 19.6 mM
IC50 ([2]; HT29, WST-1, 48 h): 23 mM
CA IX levels compared to control ([3]; A375 hypoxic cell cultures): significantly reduced
CA IX levels compared to control ([3]; A375 normoxic cell cultures): significantly reduced
IC50 [4]: 15.5 mM
CA IX levels compared to control ([5]; HT29 hypoxic cell cultures): increase
CA IX levels compared to control ([5]; HT29 normoxic cell cultures): slight increase
Ki (hCA I): 29.9 mM
Ki (hCA XII): 6.2 mM
Ki (hCA II): 41 mM
Ki (hCA IX): 2.8 mM
